Data: patent US20240139333A1, “2,6-DICHLOROPHENYL ESTER COMPOUNDS AND USE THEREOF” (Fusion Pharmaceuticals Inc., priority 2021, published 2024)

How the values were obtained:
pH stability study = assay type: physicochemical; conditions: 20° C.
Method: To a 4 mL scintillation vial containing Compound A-E (in respective experiments; 0.8 mg) was added 4 mL of either a pH 3, pH 5 pH 7 or pH 9 buffer to create a 0.2 mg/mL solution. 2 mL of this solution was added to a 2 mL HPLC vial and placed in the auto sampler of an HPLC-MS at 20° C. Timed aliquots at time (T)=15, 30, 60, 120, 240 and 480 minutes were taken and analyzed by HPLC-MS using elution method 1 (Table 3). […]
pH 3 Buffer: Citric acid/Na2HPO4 (79.45 mL 0.1 M-citric acid and 20.55 mL 0.2-Na2HPO4) pH 5 Buffer: Citric acid/Na2HPO4 (48.50 mL 0.1 M-citric acid and 51.50 mL 0.2-Na2HPO4) pH 7 Buffer: Citric acid/Na2HPO4 (17.65 mL 0.1 M-citric acid and 82.35 mL 0.2-Na2HPO4) pH 9 Buffer: Sodium Carbonate/Sodium Bicarbonate (10 mL 0.1 M-Na2CO3 and 90 mL 0.1-NaHCO3)

[1] = Competitive reactivity study between L-Lysine and HOPO nucleophile; conditions: L-Lysine 5 eq. / 1,2-HOPO 1 eq.
Method: (§1) General Experimental Protocol for Competitive Reactivity Study with L-Lysine and HOPO or HOA Nucleophiles
(§2) To a 4 mL scintillation vial containing Compound A (1 eq.) was added a stir bar followed by 70 μL of HPLC grade acetonitrile followed by a respective HOPO or HOA nucleophile (1 eq). In another 4 mL scintillation vial containing L-Lysine monohydrochloride (5 eq.) was added 130 μL HPLC grade water followed by diisopropylethylamine (5 eq.). The solutions were combined and allowed to stir at room temperature (22±2° C.) for 4 hours. Timed aliquots at time (T)=15, 30, 60, 120 and 240 minutes were taken and analyzed by HPLC-MS using elution method 1 (Table 7)

[2] = Competitive reactivity study between L-Lysine and HOA nucleophile; conditions: L-Lysine 5 eq. / N-Hydroxy-N-methyl benzamide 1 eq
Method: as §1, §2

Structure (SMILES)	% Remaining (pH stability study; pH 3 buffer, 15 min) [%]	% Remaining (pH stability study; pH 3 buffer, 30 min) [%]	% Remaining (pH stability study; pH 3 buffer, 60 min) [%]	% Remaining (pH stability study; pH 3 buffer, 120 min) [%]	% Remaining (pH stability study; pH 3 buffer, 240 min) [%]	% Remaining (pH stability study; pH 3 buffer, 480 min) [%]	% Remaining (pH stability study; pH 5 buffer, 15 min) [%]	% Remaining (pH stability study; pH 5 buffer, 30 min) [%]	% Remaining (pH stability study; pH 5 buffer, 60 min) [%]	% Remaining (pH stability study; pH 5 buffer, 120 min) [%]	% Remaining (pH stability study; pH 5 buffer, 240 min) [%]	% Remaining (pH stability study; pH 5 buffer, 480 min) [%]	% Remaining (pH stability study; pH 7 buffer, 15 min) [%]	% Remaining (pH stability study; pH 7 buffer, 30 min) [%]	% Remaining (pH stability study; pH 7 buffer, 60 min) [%]	% Remaining (pH stability study; pH 7 buffer, 120 min) [%]	% Remaining (pH stability study; pH 7 buffer, 240 min) [%]	% Remaining (pH stability study; pH 7 buffer, 480 min) [%]	% Remaining (pH stability study; pH 9 buffer, 15 min) [%]	% Remaining (pH stability study; pH 9 buffer, 30 min) [%]	further results
O=C(CCc1cccnc1)Oc1c(Cl)cccc1Cl [Compound A, 2,6-Dichlorophenyl-3-(pyridin-3-yl)propanoate]	100	100	100	100	100	100	100	100	100	100	100	100	100	100	100	99.35	98.75	97.82	98.15	95.27	% Remaining (pH stability study; pH 9 buffer, 60 min): 92.61%; % Remaining (pH stability study; pH 9 buffer, 120 min): 87.81%; % Remaining (pH stability study; pH 9 buffer, 240 min): 79.28%; % Remaining (pH stability study; pH 9 buffer, 480 min): 61.56%; % Compound A Remaining ([1]; 15 min): (88.33) %; % Compound A Remaining ([1]; 30 min): (74.52) %; % Compound A Remaining ([1]; 60 min): (28.29) %; % Compound A Remaining ([1]; 120 min): (2.01) %; % Compound A Remaining ([1]; 240 min): (0) %; % Compound A Remaining ([2]; 15 min): (65.77) %; % Compound A Remaining ([2]; 30 min): (14.83) %; % Compound A Remaining ([2]; 60 min): (1.63) %; % Compound A Remaining ([2]; 120 min): (0) %
O=C(CCc1cccnc1)Oc1c(F)c(F)cc(F)c1F [Compound C, 2,3,5,6-Tetrafluorophenyl-3-(pyridin-3-yl)propanoate]	98.19	93.92	89.61	82.13	68.98	48.46	96.06	86.91	79.07	65.20	45.26	20.20	94.61	83.82	73.25	54.53	27.99	5.60	7.60	1.71	% Remaining (pH stability study; pH 9 buffer, 60 min): 0.49%; % Remaining (pH stability study; pH 9 buffer, 120 min): 0%
